# Measured values published in patent US10681909B2, “Herbicidal triazoles” (FMC Corporation, priority 2014, dated 2020).
# Assays:
# [1] = system: barnyardgrass; test: Test A preemergence; type: in vivo, Echinochloa crus-galli; details: Echinochloa crus-galli, pre-emergence, 240 h, 0 to 100 scale (0 no effect, 100 complete control), read-out: Plant response rating, Barnyardgrass
# Procedure, shortened: (§1)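 Test chemicals, formulated in a surfactant-containing non-phytotoxic solvent mixture, are applied either as a directed soil spray to newly planted seeds or as a postemergence application to plants at the one- to two-leaf stage (2–10 cm). All plants grow in a loam soil and sand blend.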
# [2] = system: barnyardgrass; test: Test A postemergence; type: in vivo, Echinochloa crus-galli; details: Echinochloa crus-galli, post-emergence, 240 h, 0 to 100 scale (0 no effect, 100 complete control), approx. 10 d, read-out: Plant response rating, Barnyardgrass
# Procedure, shortened: as §1
# [3] = system: foxtail, giant; test: Test A postemergence; type: in vivo, Setaria faberii; details: Setaria faberi, post-emergence, 240 h, 0 to 100 scale (0 no effect, 100 complete control), approx. 10 d, read-out: Plant response rating, Foxtail, Giant
# Procedure, shortened: as §1
# [4] = system: pigweed; test: Test A postemergence; type: in vivo, Amaranthus retroflexus; details: Amaranthus retroflexus, post-emergence, 240 h, 0 to 100 scale (0 no effect, 100 complete control), approx. 10 d, read-out: Plant response rating, Pigweed
# Procedure, shortened: as §1
# [5] = system: wheat; test: Test A postemergence; type: in vivo, Triticum aestivum; details: Triticum aestivum, post-emergence, 240 h, 0 to 100 scale (0 no effect, 100 complete control), approx. 10 d, read-out: Plant response rating, Wheat
# Procedure, shortened: as §1
# [6] = system: corn; test: Test A postemergence; type: in vivo, Zea mays; details: Zea mays, post-emergence, 240 h, 0 to 100 scale (0 no effect, 100 complete control), approx. 10 d
# Procedure, shortened: as §1
# [7] = system: sedge, umbrella; test: Test B flooded paddy test; type: in vivo, Cyperus difformis; details: Cyperus difformis, 360 h, 125 g ai/ha, applied to paddy water at 2-leaf stage, visual rating after 13 to 15 d, scale 0 (no effect) to 100 (complete control), read-out: Plant response rating, Sedge, Umbrella, Flood
# Procedure, shortened: (§2)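 Pots were flooded to 3 cm above the soil at treatment, and compounds were applied directly into the paddy water. That depth was held throughout. After 13 to 15 d in a greenhouse, plants were rated visually against untreated controls.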
# [8] = system: ducksalad; test: Test B flooded paddy test; type: in vivo, Heteranthera limosa; details: Heteranthera limosa, 360 h, 125 g ai/ha, applied to paddy water at 2-leaf stage, visual rating after 13 to 15 d, scale 0 (no effect) to 100 (complete control), read-out: Plant response rating, Ducksalad, Flood
# Procedure, shortened: as §2
# [9] = system: barnyardgrass; test: Test B flooded paddy test; type: in vivo, Echinochloa crus-galli; details: Echinochloa crus-galli, 360 h, 125 g ai/ha, applied to paddy water at 2-leaf stage, visual rating after 13 to 15 d, scale 0 (no effect) to 100 (complete control), read-out: Plant response rating, Barnyardgrass, Flood
# Procedure, shortened: as §2
# [10] = system: ryegrass, Italian; test: Test C postemergence; type: in vivo, Lolium multiflorum
# Procedure, shortened: (§3)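 Pre: seeded into loam/sand, sprayed same time. Post: plants in peat moss–vermiculite mix with starter nutrients and dolomitic limestone, treated at 1- to 4-leaf stage (2 to 18 cm). Formulation: non-phytotoxic solvent blend plus surfactant.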
# [11] = system: corn; test: Test C postemergence; type: in vivo, Zea mays
# Procedure, shortened: as §3
# [12] = system: crabgrass, large; test: Test C postemergence; type: in vivo, Digitaria sanguinalis
# Procedure, shortened: as §3
# [13] = system: foxtail, giant; test: Test C postemergence; type: in vivo, Setaria faberii
# Procedure, shortened: as §3
# [14] = system: morningglory; test: Test C postemergence; type: in vivo, Ipomoea coccinea
# Procedure, shortened: as §3
# [15] = system: nutsedge, yellow; test: Test C postemergence; type: in vivo, Cyperus esculentus
# Procedure, shortened: as §3
# [16] = system: ragweed; test: Test C postemergence; type: in vivo, Ambrosia elatior
# Procedure, shortened: as §3
# [17] = system: barnyardgrass; test: Test C postemergence; type: in vivo, Echinochloa crus-galli
# Procedure, shortened: as §3
# [18] = system: oilseed rape; test: Test C postemergence; type: in vivo, Brassica napus
# Procedure, shortened: as §3
# [19] = system: waterhemp; test: Test C postemergence; type: in vivo, Amaranthus rudis
# Procedure, shortened: as §3
# [20] = system: velvetleaf; test: Test C postemergence; type: in vivo, Abutilon theophrasti
# Procedure, shortened: as §3
# [21] = system: kochia; test: Test C postemergence; type: in vivo, Kochia scoparia
# Procedure, shortened: as §3
smiles,measurement,setting,value
"CCOc1nc(-c2ccc(F)cc2)nn1Cc1ccnc(C(F)(F)F)c1 [Compound 8, 4-[[5-ethoxy-3-(4-fluorophenyl)-1H-1,2,4-triazol-1-yl]methyl]-2-(trifluoromethyl)pyridine]",pest or weed control at 125 g/ha,[1]; 125 g ai/ha,100%
same,pest or weed control at 500 g/ha,"[1]; 500 g ai/ha, approx. 10 d",100%
same,pest or weed control at 125 g/ha,[2]; 125 g ai/ha,100%
same,pest or weed control at 500 g/ha,[2]; 500 g ai/ha,100%
same,pest or weed control at 125 g/ha,[3]; 125 g ai/ha,100%
same,pest or weed control at 500 g/ha,[3]; 500 g ai/ha,100%
same,pest or weed control at 125 g/ha,[4]; 125 g ai/ha,100%
same,pest or weed control at 500 g/ha,[4]; 500 g ai/ha,100%
same,plant injury at 125 g/ha,[5]; 125 g ai/ha,40%
same,plant injury at 500 g/ha,[5]; 500 g ai/ha,100%
same,"Corn plant response rating (crop injury, 0 = no effect, 100 = complete kill) at 125 g/ha",[6]; 125 g ai/ha,50%
same,"Corn plant response rating (crop injury, 0 = no effect, 100 = complete kill) at 500 g/ha",[6]; 500 g ai/ha,90%
same,pest or weed control at 125 g/ha,[7],90%
same,pest or weed control at 125 g/ha,[8],85%
same,pest or weed control at 125 g/ha,[9],50%
same,Plant response rating (scale of 0 to 100 where 0 is no effect and 100 is complete control),[10]; 31 g ai/ha,30
same,Plant response rating (scale of 0 to 100 where 0 is no effect and 100 is complete control),[10]; 62 g ai/ha,35
same,Plant response rating (scale of 0 to 100 where 0 is no effect and 100 is complete control),[10]; 125 g ai/ha,35
same,Plant response rating (scale of 0 to 100 where 0 is no effect and 100 is complete control),[10]; 250 g ai/ha,50
same,Plant response rating (scale of 0 to 100 where 0 is no effect and 100 is complete control),[11]; 31 g ai/ha,10
same,Plant response rating (scale of 0 to 100 where 0 is no effect and 100 is complete control),[11]; 62 g ai/ha,15
same,Plant response rating (scale of 0 to 100 where 0 is no effect and 100 is complete control),[11]; 125 g ai/ha,25
same,Plant response rating (scale of 0 to 100 where 0 is no effect and 100 is complete control),[11]; 250 g ai/ha,40
same,Plant response rating (scale of 0 to 100 where 0 is no effect and 100 is complete control),[12]; 31 g ai/ha,20
same,Plant response rating (scale of 0 to 100 where 0 is no effect and 100 is complete control),[12]; 62 g ai/ha,35
same,Plant response rating (scale of 0 to 100 where 0 is no effect and 100 is complete control),[12]; 125 g ai/ha,70
same,Plant response rating (scale of 0 to 100 where 0 is no effect and 100 is complete control),[12]; 250 g ai/ha,85
same,Plant response rating (scale of 0 to 100 where 0 is no effect and 100 is complete control),[13]; 31 g ai/ha,20
same,Plant response rating (scale of 0 to 100 where 0 is no effect and 100 is complete control),[13]; 62 g ai/ha,40
same,Plant response rating (scale of 0 to 100 where 0 is no effect and 100 is complete control),[13]; 125 g ai/ha,55
same,Plant response rating (scale of 0 to 100 where 0 is no effect and 100 is complete control),[13]; 250 g ai/ha,85
same,Plant response rating (scale of 0 to 100 where 0 is no effect and 100 is complete control),[14]; 31 g ai/ha,85
same,Plant response rating (scale of 0 to 100 where 0 is no effect and 100 is complete control),[14]; 62 g ai/ha,98
same,Plant response rating (scale of 0 to 100 where 0 is no effect and 100 is complete control),[14]; 125 g ai/ha,80
same,Plant response rating (scale of 0 to 100 where 0 is no effect and 100 is complete control),[14]; 250 g ai/ha,100
same,Plant response rating (scale of 0 to 100 where 0 is no effect and 100 is complete control),[15]; 31 g ai/ha,5
same,Plant response rating (scale of 0 to 100 where 0 is no effect and 100 is complete control),[15]; 62 g ai/ha,10
same,Plant response rating (scale of 0 to 100 where 0 is no effect and 100 is complete control),[15]; 125 g ai/ha,10
same,Plant response rating (scale of 0 to 100 where 0 is no effect and 100 is complete control),[15]; 250 g ai/ha,10
same,Plant response rating (scale of 0 to 100 where 0 is no effect and 100 is complete control),[16]; 31 g ai/ha,45
same,Plant response rating (scale of 0 to 100 where 0 is no effect and 100 is complete control),[16]; 62 g ai/ha,50
same,Plant response rating (scale of 0 to 100 where 0 is no effect and 100 is complete control),[16]; 125 g ai/ha,70
same,Plant response rating (scale of 0 to 100 where 0 is no effect and 100 is complete control),[16]; 250 g ai/ha,80
same,Plant response rating (scale of 0 to 100 where 0 is no effect and 100 is complete control),[17]; 31 g ai/ha,10
same,Plant response rating (scale of 0 to 100 where 0 is no effect and 100 is complete control),[17]; 62 g ai/ha,20
same,Plant response rating (scale of 0 to 100 where 0 is no effect and 100 is complete control),[17]; 125 g ai/ha,40
same,Plant response rating (scale of 0 to 100 where 0 is no effect and 100 is complete control),[17]; 250 g ai/ha,75
same,Plant response rating (scale of 0 to 100 where 0 is no effect and 100 is complete control),"[18]; Oilsee Rape, 250 g ai/ha",95
same,Plant response rating (scale of 0 to 100 where 0 is no effect and 100 is complete control),"[18]; Oilseed Rape, 31 g ai/ha",90
same,Plant response rating (scale of 0 to 100 where 0 is no effect and 100 is complete control),"[18]; Oilseed Rape, 62 g ai/ha",95
same,Plant response rating (scale of 0 to 100 where 0 is no effect and 100 is complete control),"[18]; Oilseed Rape, 125 g ai/ha",95
same,Plant response rating (scale of 0 to 100 where 0 is no effect and 100 is complete control),[19]; 31 g ai/ha,95
same,Plant response rating (scale of 0 to 100 where 0 is no effect and 100 is complete control),[19]; 62 g ai/ha,98
same,Plant response rating (scale of 0 to 100 where 0 is no effect and 100 is complete control),[19]; 125 g ai/ha,95
same,Plant response rating (scale of 0 to 100 where 0 is no effect and 100 is complete control),[19]; 250 g ai/ha,98
same,Plant response rating (scale of 0 to 100 where 0 is no effect and 100 is complete control),[20]; 31 g ai/ha,50
same,Plant response rating (scale of 0 to 100 where 0 is no effect and 100 is complete control),[20]; 62 g ai/ha,70
same,Plant response rating (scale of 0 to 100 where 0 is no effect and 100 is complete control),[20]; 125 g ai/ha,90
same,Plant response rating (scale of 0 to 100 where 0 is no effect and 100 is complete control),[20]; 250 g ai/ha,90
same,Plant response rating (scale of 0 to 100 where 0 is no effect and 100 is complete control),[21]; 31 g ai/ha,95
same,Plant response rating (scale of 0 to 100 where 0 is no effect and 100 is complete control),[21]; 62 g ai/ha,95
same,Plant response rating (scale of 0 to 100 where 0 is no effect and 100 is complete control),[21]; 125 g ai/ha,95
same,Plant response rating (scale of 0 to 100 where 0 is no effect and 100 is complete control),[21]; 250 g ai/ha,95
